Laboratory results from PMC3401542 (Bioorganic & medicinal chemistry, 2012).
Read-outs that look alike come from different tables or passages of the source.

Key:
[1] = biological target: neuraminidase of A/Brisbane/59/07 (H1N1) (Influenza A virus, UniProt D5F1R0); assay: biochemical; type: biochemical
N2 NAs = conditions: read-out: inhibition (IC50) of N2 NAs; range over N2 NAs; ref [28]; cited from earlier work
type B NAs = conditions: read-out: inhibition (IC50) of type B NAs; range over type B NAs; ref [28]; cited from earlier work
[2] = biological target: neuraminidase of A/Uruguay/716/07 (H3N2) (Influenza A virus, UniProt I6VF55); type: biochemical; conditions: read-out: Inhibition of Neuraminidase, IC50
[3] = biological target: neuraminidase of A/Solomon Islands/3/06 (H1N1) (Influenza A virus, UniProt B4URD9); type: biochemical; conditions: read-out: Inhibition of Neuraminidase, IC50
[4] = biological target: neuraminidase of B/Malaysia/5206/04 (Influenza B virus, UniProt Q38G90); assay: Neuraminidase inhibition, fluorogenic MUNANA substrate, purified intact virions; type: biochemical; conditions: read-out: Inhibition of Neuraminidase, IC50

Compound	IC50 [1]	improved N1 NA activity compared to the parent 3 [1]	other results
CCC(CC)Cc1cc(C(=O)O)ccc1N1C(=O)CCC1(CO)CO [Compound 14b, 4-(2,2-Bis (hydroxymethyl)-5-oxopyrrolidin-1-yl)-3-(2-ethylbutyl)benzoic Acid]	1.6 ± 0.6 µM	30–40 fold	–
CCC(=Cc1cc(C(=O)O)ccc1N1C(=O)CCC1(CO)CO)CC [Compound 13b, 4-(2,2-Bis (hydroxymethyl)-5-oxopyrrolidin-1-yl)-3-(2-ethylbut-1-enyl)benzoic Acid]	2.4 ± 0.9 µM	30–40 fold	–
CCC(CC)O[C@@H]1C=C(C(=O)O)C[C@H](N)[C@H]1NC(C)=O [Compound 1c, oseltamivir carboxylate]	–	–	IC50 (N2 NAs): 0.00068 to 0.00178 µM; IC50 (type B NAs): 0.005 to 0.0243 µM
CCC(C)OCc1cc(C(=O)O)ccc1N1C(=O)CCC1(CO)CO (centres unmarked) [Compound 10b, 4-(2,2-Bis(hydroxymethyl)-5-oxopyrrolidin-1-yl)-3-(2-butoxymethyl)benzoic Acid]	16 ± 2.1 µM	–	–
CC(C)OCc1cc(C(=O)O)ccc1N1C(=O)CCC1(CO)CO [Compound 10a, 4-(2,2-Bis(hydroxymethyl)-5-oxopyrrolidin-1-yl)-3-(isopropoxymethyl)benzoic Acid]	> 10000 µM	–	–
CC(C)Cc1cc(C(=O)O)ccc1N1C(=O)CCC1(CO)CO [Compound 13c, 4-(2,2-Bis (hydroxymethyl)-5-oxopyrrolidin-1-yl)-3-isobutylbenzoic Acid]	70 ± 7.8 µM	–	–
4-(2,2-Bis(hydroxymethyl)-3-((3-pentyloxy)methyl)-5-oxopyrrolidin-1-yl)benzoic Acid [Compound 10c]	–	80–100 fold	IC50 [2]: 0.5 ± 0.1 µM; IC50 ([1]; read-out: Inhibition of Neuraminidase, IC50): 1 ± 0.21 µM; IC50 [3]: 0.8 ± 0.07 µM; IC50 [4]: 30 ± 1.4 µM
